The values below come from patent US11795163B2, “Compound for inhibiting nicotinamide phosphoribosyltransferase and composition containing same” (CHECKMATE THERAPEUTICS INC., priority 2016, dated 2023).

One series concerns H322. The experiment in a line: Therapeutic effect of cancer cell line, IC50. The settings on record: NCI-H322; H322, NAPRT expression negative. It counts as cell-based.
A further series relates to H661. The experiment in a line: Therapeutic effect of cancer cell line, IC50. Format: cell-based. The conditions noted are these: Homo sapiens, NCI-H661; H661, NAPRT expression negative.
For the next series, the system named is H1115. The experiment in a line: Therapeutic effect of cancer cell line, IC50. It counts as cell-based. The settings on record: H1115, NAPRT expression negative.
The nature of series [1]: Microsome stability evaluation. It counts as in vitro ADME, human. The settings on record: after 30 minutes, 1 μM compound, 0.3 mg/ml microsomal protein, 1 mM NADPH. How it is done: (§1) Metabolic stability was assessed using human liver microsomes and mouse liver microsomes. Specifically, pooled male mouse liver microsomes (in-house preparation per SOP), pooled human liver microsomes (XENOTECH; […] The reaction was stopped by addition of acetonitrile ([…]) containing the same volume of internal standard. The precipitated proteins were removed by centrifugation and the supernatant was analyzed by LC/MS-MS method. […] Residual % parent compound=(peak area at time x/peak area at TO)×100.

The nature of series [2]: Microsome stability evaluation. Format: in vitro ADME, mouse. The conditions noted are these: after 30 minutes, 1 μM compound, 0.3 mg/ml microsomal protein, 1 mM NADPH. On the procedure:
as §1

For a further series, the target named is hERG channel (Homo sapiens, UniProt Q12809). The experiment in a line: hERG screening by fluorescence polarization with red fluorescent hERG channel ligand tracer. It counts as binding. The conditions noted are these: probe high affinity red fluorescent hERG channel ligand tracer, mean±standard deviation, read-out: % inhibition capacity. In general terms: hERG is a cardiac potassium channel; its block is linked to QT prolongation.

The target in another series is hERG K+ channel (Homo sapiens, UniProt Q12809). The series can be described thus: hERG K+ channel activity evaluation, patch clamp.
A further series has as its system H1299. The experiment in a line: Therapeutic effect of cancer cell line, IC50. Format: cell-based. The conditions noted are these: Homo sapiens, NCI-H1299; H1299, NAPRT expression positive.
The next series deals with H1975. The series can be described thus: Therapeutic effect of cancer cell line, IC50. Format: cell-based. The settings on record: Homo sapiens, NCI-H1975; H1975, NAPRT expression positive.
The subject of another series is H1993. The experiment in a line: Therapeutic effect of cancer cell line, IC50. Format: cell-based. The settings on record: Homo sapiens, NCI-H1993; H1993, NAPRT expression positive.
Another series concerns H2030. The series can be described thus: Therapeutic effect of cancer cell line, IC50. Format: cell-based. The settings on record: Homo sapiens, NCI-H2030; H2030, NAPRT expression positive.
The test system of another series is H2122. The experiment in a line: Therapeutic effect of cancer cell line, IC50. It counts as cell-based. The settings on record: Homo sapiens, NCI-H2122; H2122, NAPRT expression positive.
In a further series the test system is HBEC30. The experiment in a line: Therapeutic effect of cancer cell line, IC50. Format: cell-based. The settings on record: HBEC30, NAPRT expression positive.
A further series concerns H322 cell line. The series can be described thus: Toxic mechanism in cancer cell lines: intracellular NAD, ATP and total protein. The settings on record: H322, 2.5 μM. Format: cell-based. On the procedure:
To investigate the direct effect of the compound according to the present invention on the catalytic activity of NamPT enzyme, after treating H322 cell line with 2.5 μM of the compound of the Synthesis Example 4, the intracellular NAD, ATP and total protein was measured, with the results depicted in FIG. 20.

Series [3] relates to H322, H661, H1155, H1993, H1975, H2030, H1299, H2122 and HBEC30. The series can be described thus: Viability of various cancer cell lines by concentration (NAPRT positive vs negative). Format: cell-based.
The test system of another series is Primary cardiomyocyte. The experiment in a line: Toxicity assessment in normal cell line, cell viability. Format: cell-based. The conditions noted are these: high concentrations.
For series [4], the system named is retinal pigment epithelium cell (RPE). The series is described as above. The settings on record: high concentrations. It counts as cell-based.
A further series relates to liver cell (THLE-2). The description is as above. Format: cell-based.
For a further series, the system named is liver cell (THLE-3). The experiment in a line: Toxicity evaluation in normal cell line, cell viability. The conditions noted are these: THLE3; THLE-3, FIG. 26. Format: cell-based.

The term IC50 denotes the concentration at which inhibition is half-maximal. Read a low IC50 as higher potency. In general, inhibition refers to the share of the control response that was lost under treatment.

Each structure is given as a SMILES string.

Sequence of hERG channel (Q12809 whole entry): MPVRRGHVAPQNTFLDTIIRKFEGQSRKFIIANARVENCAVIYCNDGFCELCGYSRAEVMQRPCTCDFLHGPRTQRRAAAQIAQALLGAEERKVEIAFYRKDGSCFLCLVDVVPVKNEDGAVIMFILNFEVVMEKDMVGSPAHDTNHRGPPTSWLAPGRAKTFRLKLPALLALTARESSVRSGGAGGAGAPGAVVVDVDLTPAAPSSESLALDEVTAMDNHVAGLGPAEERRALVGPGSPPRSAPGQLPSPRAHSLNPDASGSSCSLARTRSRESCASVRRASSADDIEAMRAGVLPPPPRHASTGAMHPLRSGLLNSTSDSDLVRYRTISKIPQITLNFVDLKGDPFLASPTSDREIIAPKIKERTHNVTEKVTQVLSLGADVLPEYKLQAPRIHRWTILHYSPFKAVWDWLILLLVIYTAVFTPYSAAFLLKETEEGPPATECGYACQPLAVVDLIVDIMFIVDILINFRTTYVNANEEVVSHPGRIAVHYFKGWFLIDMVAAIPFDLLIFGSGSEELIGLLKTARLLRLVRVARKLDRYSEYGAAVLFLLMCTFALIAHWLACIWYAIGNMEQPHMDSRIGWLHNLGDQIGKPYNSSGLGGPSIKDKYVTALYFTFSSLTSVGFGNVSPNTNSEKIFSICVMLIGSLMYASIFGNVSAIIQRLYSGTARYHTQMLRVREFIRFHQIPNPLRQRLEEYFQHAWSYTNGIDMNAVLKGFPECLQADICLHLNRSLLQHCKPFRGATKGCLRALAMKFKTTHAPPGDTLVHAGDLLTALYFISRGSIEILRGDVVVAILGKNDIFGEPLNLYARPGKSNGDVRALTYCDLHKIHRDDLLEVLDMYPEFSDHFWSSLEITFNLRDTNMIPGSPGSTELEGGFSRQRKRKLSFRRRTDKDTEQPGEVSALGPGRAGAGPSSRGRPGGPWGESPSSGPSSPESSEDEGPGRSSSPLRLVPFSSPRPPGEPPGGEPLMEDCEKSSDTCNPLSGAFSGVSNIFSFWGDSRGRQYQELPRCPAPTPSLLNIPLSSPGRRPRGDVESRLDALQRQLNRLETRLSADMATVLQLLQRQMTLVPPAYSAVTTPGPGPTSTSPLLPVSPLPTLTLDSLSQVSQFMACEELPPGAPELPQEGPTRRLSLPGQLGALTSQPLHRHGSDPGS
Sequence of hERG K+ channel (Q12809 whole entry): as above
Procedure for hERG K+ channel: In addition, as the hERG K+ channel activity evaluation, the potential risk of log QT prolongation according to the dose used was evaluated by measuring the current inhibition according to the drug using a patch clamp technique and evaluating the IC50.

With `O=C(NCc1ccc(-c2nc3cc4ccccc4cc3o2)cc1)c1cccnc1` [A4265, N-(4-(naphtho[2,3-d]oxazol-2-yl)benzyl)nicotinamide], the IC50 with H322 was 3 nM; with H661 it was less than 30 nM; in the series with H1115, 10 nM; at hERG K+ channel it was more than 100 µM. Further, the “Human(%) parent compound remaining” value in [1] is 81.11 ± 4.76%. Further, in series [2], the “Mouse(%) parent compound remaining” value is 78.24 ± 6.49%. For the same compound, on hERG channel, the inhibition at 10 µM was found to be 7.44 ± 3.12%.
As for `O=C(NCc1ccc(-c2nc3ccc(Cl)cc3o2)cc1)c1cccnc1` [A4266, N-(4-(6-chlorobenzo[d]oxazol-2-yl)benzyl)nicotinamide], the IC50 is 30 nM with H322, 100 nM in the series with H661, 30 nM in the series with H1115 and more than 100 µM against hERG K+ channel. Moreover, in series [1], the “Human(%) parent compound remaining” value is listed as more than 99%. Also, the “Mouse(%) parent compound remaining” value in series [2] was found to be 89.3 ± 3.12%. On hERG channel, the inhibition at 10 µM was less than 1%.
On to `O=C(NCc1ccc(-c2nc3cnccc3o2)cc1)c1cccnc1` [B1471, N-(4-(oxazolo[4,5-c]pyridin-2-yl)benzyl)nicotinamide], for which the IC50 in the series on H322 was less than 24 nM; in the series with H661 it was 700 nM; in the series with H1115, more than 1000 nM; in the series on H1299, 100 µM; with H1975, more than 100 µM; with H1993 it was more than 100 µM. Also, the 50% inhibitory concentration (IC50) in the series on H2030, in the series with H2122 and in the series with HBEC30 was more than 100 µM each time. Also, the “amount of ATP” value in the series with H322 cell line is given as “remarkably decreased”. Also, in the series on H322 cell line, the “amount of NAD” value is “remarkably decreased”. For the same compound, in the series with H322 cell line, the “total amount of protein compared to the negative control” value was “decrease”.
Take `O=C(/C=C/c1cccnc1)NCCCCC1CCN(C(=O)c2ccccc2)CC1` [FK866, N-[4-(1-benzoyl-4-piperidinyl)butyl]-3-(3-pyridinyl)-2E-propenamide]: the “difference in LD50 values between the NAPRT positive cell line and the negative cell line” value in series [3] was “approximately 10 times”. Further, the “cytotoxicity (cell viability)” value with Primary cardiomyocyte is “unpredictable cytotoxicity”; in series [4], “unpredictable cytotoxicity”; in the series on liver cell (THLE-2) (THLE-2, high concentrations), “unpredictable cytotoxicity”. Further, the half-inhibitory concentration (IC50) in the series on liver cell (THLE-2) (Homo sapiens, THLE-2, FIG. 25) was approximately 50 nM; with liver cell (THLE-3), approximately 50 nM. Also, the “Human(%) parent compound remaining” value in [1] came to 25.48 ± 1.45%. Also, in series [2], the “Mouse(%) parent compound remaining” value was 10.26 ± 0.91%.
